Results reported in article PMC8244865, “Recruitment of phospholipase Cγ1 to the non-structural membrane protein pK15 of Kaposi Sarcoma-associated herpesvirus promotes its Src-dependent phosphorylation” (PLoS Pathogens, 2021).

B1: pK15 CT^WT: pK15 cytoplasmic tail fused to GST at its N-terminal end, phosphorylated in vitro by Src (protein)
chain: SQLLNEVELQEVNRDPPNVFGYASILVSGAEESREPSPQPDQSGMSILRVDGGSAFRIDTAQAATQPTDDLYEEVLFPRN
modifications: tyrosine-phosphorylated in vitro by Src; sites not stated for this construct; left off: GST, N-terminal, kept

Legend:
[1] = molecular target: T1, PLCγ1 nSH2 (Homo sapiens, UniProt P19174); assay: 1H,15N HSQC NMR titration, PLCγ1 nSH2; assay type: binding; conditions: 1H-15N HSQC titration
T1 construct: nSH2 (545–662): 180 ± 43 nM; thioredoxin (pETM22 fusion, purified on Ni column) (N, cleaved yes); made in house; host or cells: E. coli BL21(DE3)
T1 sequence (P19174 545-662): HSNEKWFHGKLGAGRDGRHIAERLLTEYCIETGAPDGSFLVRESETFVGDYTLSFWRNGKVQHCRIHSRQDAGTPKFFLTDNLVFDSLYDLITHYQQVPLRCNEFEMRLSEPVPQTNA
Experimental: Fig 5 Affinity of pK15 peptide for PLCγ1 tSH2 or individual SH2 domains. (A) Binding curves of several PLCγ1 fragments in the presence of 200 nM 5,6-FAM-labelled pK15 (12mer). All measurements were performed in triplicate. […] (B and C) Overlay of ^1H,^15N HSQC NMR spectra of nSH2 (B) and cSH2 (C) alone (in yellow) and in the presence of 2 molar equivalents of the pK15 12mer peptide (blue), measured with a 600 MHz spectrometer at 298 K. The protein concentration was 100 μM and the buffer contained 100 mM MES, 150 mM NaCl, 3 mM TCEP, pH 6.5. (D and E) Excerpts from ^1H-^15N HSQC spectra of nSH2 (D) and cSH2 (E) upon addition of increasing concentrations of the pK15 12mer peptide.
Next, we used Nuclear Magnetic Resonance (NMR) spectroscopy to further compare the interaction of the phosphorylated pK15 12mer to the isolated nSH2 and cSH2 domains (Fig 5B–5E). We recorded ^1H-^15N HSQC spectra of each of the two domains in the presence of increasing concentrations of the pK15 peptide. In this spectrum, each N-H group of the protein gives rise to one peak. […] A change in the position of a few NMR peaks of the amide groups of the protein upon addition of the peptide is indicative of binding. […] The behavior of the NMR peaks during the titration series, however, differed for the two SH2 domains, indicating different binding kinetics. […] In light of this, it is conceivable that the preference of pK15 CT for cSH2 in vivo may be determined by kinetic rather than thermodynamic factors.
NMR experiments were recorded at 298 K on a 600-MHz Bruker Avance III-HD spectrometer equipped with an inverse HCN cryogenic probehead (nitrogen-cooled) and running Topspin 3.2 software. 2D ^15N-HSQC spectra were recorded using States-TPPI for frequency discrimination, with water suppression achieved via a combination of WATERGATE and water flip-back pulses to preserve the water magnetization. NMR data were processed in Topspin and analysed in CcpNmr Analysis v2.4 [74].

[2] = test system: PLCγ1 cSH2 domain (vs nSH2 domain); assay: GST-pulldown, individual SH2 domains; assay type: binding; conditions: in vitro phosphorylated; S-tagged individual SH2 domains transfected in HEK 293
Experimental: Fig 3 Contribution of individual PLCγ1 SH2 domains to the interaction with phosphorylated pK15. The pK15 CT fused to GST, its Y^481F mutant, or GST alone were bound to glutathione beads, phosphorylated in vitro (+) or left unphosphorylated (-), and a GST pulldown was performed 32h after transfection into HEK-293T cells of expression vectors for S-tagged full-length PLCγ1 (FL) (A) or PLCγ1 SA (B) containing the indicated mutations. (C) pK15 CT WT, its Y^481F mutant or GST were bound to glutathione beads, phosphorylated in vitro (+) or left unphosphorylated (-), and used for a GST pulldown assay 32h after transfecting HEK 293T cells with expression vectors for S-tagged individual PLCγ1 nSH2 or cSH2 domains. […]
HEK293T cells were washed once with cold PBS 30 hours after transfection, lysed in IP buffer (50 mM Tris pH7.6, 60 mM NaCl, 6.25 mM EDTA, 1% (v/v) glycerol, 0.04% (v/v) NP-40) on ice for 30 minutes, sonicated shortly and cleared by centrifugation for 10 minutes at 20.000g, 4°C. […] Beads were then washed 5 times in 500 μl IP buffer (or for purified proteins IP buffer with 200 mM NaCl), suspended in 10 μl of 5x Laemmli sample buffer (60 mM Tris pH6.8, 24% (v/v) glycerol, 2% (v/v) SDS, 5% (v/v) β-mercaptoethanol, 0.01% Bromphenol Blue) and analysed by western blot.

| Molecule | dissociation rate koff or association rate kon of nSH2–peptide complex relative to cSH2–peptide complex ([1]; 298 K, pH 6.5) | NMR exchange regime ([1]; 600 MHz, 298 K, 100 μM protein, 100 mM MES, 150 mM NaCl, 3 mM TCEP, pH 6.5) | affinity for nSH2 compared with cSH2 (NMR) ([1]; same saturating concentration of peptide, either nSH2 or cSH2) | preference between SH2 domains (GST-pulldown) [2] |
| --- | --- | --- | --- | --- |
| DDLpYEEVLFPRN [pK15 12mer, phosphorylated peptide representing the last 12 amino acids of pK15 CT (DDLp…)] | more than one order of magnitude slower than the corresponding rate of the cSH2–peptide complex | slow exchange regime | both domains bound the K15 peptide with similar affinity |  |
| B1 |  |  |  | bound preferentially to the PLCγ1 cSH2 domain compared to its nSH2 domain |
